According to patent US9499484B2, “Indole, indoline derivatives, compositions comprising them and uses thereof” (priority 2012, dated 2016):
Structures can show the parent of a compound that is named as a salt. Where two headings read alike, the source gives them in different places.

Experiments:
AChE = target: T1, AChE (UniProt P23795); assay type: biochemical, human or bovine erythrocytes
T1 sequence (P23795 1-613): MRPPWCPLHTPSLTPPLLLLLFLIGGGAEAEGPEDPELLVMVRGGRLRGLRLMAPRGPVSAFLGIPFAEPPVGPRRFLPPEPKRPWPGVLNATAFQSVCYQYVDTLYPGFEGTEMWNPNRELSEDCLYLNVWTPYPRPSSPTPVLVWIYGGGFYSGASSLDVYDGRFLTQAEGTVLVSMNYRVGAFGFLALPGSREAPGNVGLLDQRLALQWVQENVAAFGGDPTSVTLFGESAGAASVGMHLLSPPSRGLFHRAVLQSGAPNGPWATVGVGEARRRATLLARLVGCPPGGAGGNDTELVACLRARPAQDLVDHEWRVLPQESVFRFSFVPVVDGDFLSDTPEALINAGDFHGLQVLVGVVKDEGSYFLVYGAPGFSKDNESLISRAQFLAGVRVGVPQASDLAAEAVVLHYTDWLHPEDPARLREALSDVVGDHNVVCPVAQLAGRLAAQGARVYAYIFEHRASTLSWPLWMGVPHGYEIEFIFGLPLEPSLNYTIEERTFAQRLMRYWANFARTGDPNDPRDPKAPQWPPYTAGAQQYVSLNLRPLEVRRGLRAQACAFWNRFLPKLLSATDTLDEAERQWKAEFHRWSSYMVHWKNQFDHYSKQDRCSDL
Procedure: (§1) B. Measurement of Acetylcholinesterase (AChE) and Butylcholinesterase (BuChE) Inhibition In Vitro
(§2) The enzyme was incubated at 37° C. with 6-10 concentrations of the compounds tested and samples were collected at 15, 30, 60 and 120 min Aliquots were transferred to an Elisa multiscan microplate reader (Labsystems) at 15-60 sec time intervals for the determination of residual AChE activity, with Ascent PC software. […] The % inhibition of AChE by each concentration was calculated by comparison with the activity of the enzyme in the absence of drug. […] BuChE-inhibitory activity was determined as described above using BuChE (Sigma Israel) with butylthiocholine iodide (BuTh) 0.075M as a substrate.

[1] = Radical scavenging, glucose oxidase/luminol luminescence; assay type: biochemical; settings: concentration reducing luminescence/radical by 50%; mean ± SD, three independent experiments
Procedure: A. Measurement of Radical Scavenging
A mixture comprising glucose oxidase (GO), luminol, sodium selenite [IV] ([…]) and cobalt [II] (Co^+2) all in Hank's Balance Salt Solution (HBSS) was used (Ginsburg et al, 2004). The production of H2O2 produces a burst of luminescence within 30-60 sec, which lasts for 7-10 min. The luminescence involves oxidation of SEL+5 to it SEL+6 and also the generation of oxidants, which are catalyzed by Co^+2. This method mimics infection and inflammation conditions in which there is an accumulation of several oxidant species. This method provides a source of several radicals. Reduction in luminescence by the compounds is due to their ability to sequester radicals and was measured after addition of several concentrations of each compound. The concentration of each compound that reduced the luminescence by 50% was calculated.

Radical scavenging, Sin1 = assay type: biochemical; settings: mean ± SD, three independent experiments
BuChE = target: T2, BuChE (UniProt P81908); assay type: biochemical, human or equine serum
T2 construct: 120 min incubation; BuChE IC50
Procedure: as §1, §2

[2] = tested on: TNF-α, BV2 mouse microglial cells; experiment: TNF-α reduction in LPS-stimulated BV2 microglia; assay type: cell-based; settings: for Reduction in TNF-α levels, BV2 Microglia range: concentration range, None = no reduction up till 100 nM
Procedure: The BV2 mouse microglial cells were created by infecting primary mouse microglia with v-raf/v-myc oncogen-carrying retrovirus and donated by Dr. Sigal Fleisher—Berkovich (Ben-Gurion University of the Negev). The cells were cultured in RPMI 1640 containing 0.4 mM L-Glutamine, 10% FCS, 100 units/ml penicillin, 100 μg/ml streptomycin and maintained in a humidified incubator at 37° C. with 5% CO2. For measurement of the effect of compounds on the release of NO the cells were seeded in a density of 80,000 cells/ml and confluence of about 60%, and incubated with test compounds (in the absence of FCS) for […] All the medium was removed and fresh medium containing FCS and LPS (10 μg/ml) added and the cells maintained at 37° C. for 24 h. The release of NO into the medium was determined by measurement of nitrite levels using Griess reagent reaction. For measurement of protein levels of cytokines cells were seeded in a density of 80,000 and incubated with test compounds (in the absence of FCS) and then with LPS as described above. The medium was centrifuged and supernatants collected after 6 h for TNF-α (Biolegend) and after 20 h for IL-6 (Biolegend).

TNF-α, RAW 264.7 cells = experiment: TNF-α reduction in LPS-stimulated RAW 264.7 macrophages; assay type: cell-based, mouse
[3] = tested on: ChE (AChE, BuChE) in plasma, muscle, spleen, brain; settings: after ip and or oral administration in mice
Procedure: E. Acetylcholinesterase (AChE) and Butylcholinesterase (BuChE) Inhibition Ex Vivo
Compounds of the invention or saline were administrated by intraperitoneal (ip) injection or gavage to groups of 6-7 male ICR or Balb C mice (5-6 weeks of age). The mice were sacrificed 15, 30, 60 or 120 min after drug administration and the brain (minus cerebellum), spleen, and muscle were rapidly removed, weighed and put on ice. Blood was also collected in heparinised tubes, centrifuged at 14000 rpm at room temperature for 4 mM to provide plasma. Phosphate buffer pH 7 was added to each tissue to produce concentrations of 1 mg/mL for brain and spleen and 8 mg/mL for muscle. The tissues were homogenised in cold phosphate buffer pH 7 containing 0.1% Triton and centrifuged at 14000 rpm. Aliquots of plasma and the supernatant of all tissues were incubated with AcTh or BuTh and DTNB in phosphate buffer pH 7 and the rate of development of the yellow colour was measured as described above. Enzyme activity was measured for each time and drug concentration and percent inhibition of the AChE or BuChE activity was calculated by comparison with that of control mice injected with saline. Results are represented as p moles acetylthiocholine or butythiocholine hydrolysed/min/gm tissue.

NO, RAW 264.7 cells = experiment: NO reduction in LPS-stimulated RAW 264.7 macrophages; assay type: cell-based, mouse
[4] = Table 2, 120 min incubation, read-out: IC50 AChE 120′
[5] = Table 3, 120 min incubation, read-out: IC50 AChE 120 min
[6] = read-out: IC50 BuChE 120 min; Table 3; 120 min incubation
[7] = Mus musculus, RAW264.7, 6 h, read-out: Reduction in TNF-α levels, RAW Macrophages % peak reduction
[8] = concentration range; None = no reduction up till 100 nM
[9] = Mus musculus, RAW264.7, 24 h, read-out: Reduction in NO levels, RAW Macrophages % peak reduction

CN(C)C(=O)Oc1cccc2c1CCN2C [AN-619, Dimethyl-carbamic acid 1-methyl-2,3-dihydro-1H-indol-4-yl ester]
IC50 (AChE; [4]): 3.5 µM

CN(C)C(=O)Oc1cccc2ccn(C)c12 [AN-621, Dimethyl-carbamic acid 1-methyl-1H-indol-7-yl ester]
IC50 (AChE): 0.33 µM | IC50 (AChE; [4]): 0.3 µM

CCN(CC)C(=O)Oc1ccc2c(ccn2C)c1 [AN-622, Diethyl-carbamic acid 1-methyl-1H indol-5-yl ester]
IC50 (AChE; read-out: IC50 AChE 120′): > 500 µM

CCN(CC)C(=O)Oc1ccc2c(c1)CCN2C [AN-625, Diethyl-carbamic acid 1-methyl-2,3-dihydro-1H indol-5-yl ester]
IC50 (AChE; read-out: IC50 AChE 120′): 50 µM

CCN(C)C(=O)Oc1cccc2c1c(CCC(=O)OC)cn2C [AN-629, Methyl 3-(4-((ethyl(methyl)carbamoyl)oxy)-1-methyl-1H-indol-3-yl) propanoate]
IC50 (AChE; [4]): 180 µM

CCN(C)C(=O)Oc1ccc2c(c1)C(CCC(=O)OC)CN2 (stereo not shown) [AN-669, 3-(2-(Methoxycarbonyl)ethyl) indolin-5-yl ethylmethylcarbamate]
IC50 (AChE; [4]): 660 µM

CCN(C)C(=O)Oc1ccc2c(c1)NCC2CCC(=O)OC (stereo not shown) [AN-680, 3-(2-(Methoxycarbonyl)ethyl)-1-indoline-6-yl ethylmethylcarbamate hydrochloride]
IC50 [1]: 1.45 ± 0.05 µM | IC50 (Radical scavenging, Sin1): 2.36 ± 0.05 µM | IC50 (AChE; [5]): 55.2 µM | IC50 (BuChE; [6]): 3.9 µM | Reduction in TNF-α levels, BV2 Microglia range [2]: None | Emax (TNF-α, RAW 264.7 cells; [7]): 34.5 ± 1.6%

COC(=O)CCC1CNc2cc(O)ccc21 (stereo not shown) [AN-682, Methyl 3-(6-hydroxyindolin-3-yl)propanoate hydrochloride]
IC50 [1]: 1.34 ± 0.01 µM | IC50 (Radical scavenging, Sin1): 2.33 ± 0.08 µM | Reduction in TNF-α levels, BV2 Microglia % peak reduction [2]: 17.6 ± 1.3% | Reduction in TNF-α levels, BV2 Microglia range [2]: 10^−2-100 nM | Emax (TNF-α, RAW 264.7 cells; Mus musculus, RAW264.7, 6 h; read-out: Reduction in TNF-α levels, RAW Macrophages % peak reduction): 55 ± 1.3% | Reduction in TNF-α levels, RAW Macrophages range (TNF-α, RAW 264.7 cells; [8]): 10^−1-100 nM

COC(=O)CCC1CN(C)c2cccc(OC(=O)N(C)c3ccc(OC)cc3)c21 (stereo not shown) [AN-820, 3-(2-(Methoxycarbonyl)ethyl)-1-methylindolin-4-yl 4-methoxyphenylmethyl carbamate hydrochloride]
IC50 [1]: 15.3 ± 0.01 µM | IC50 (AChE; [5]): 246 µM | IC50 (BuChE; [6]): > 600 µM

CCN(C)C(=O)Oc1cccc2c1C(CCC(=O)OC)CN2 (stereo not shown) [AN-827, 3-(2-(Methoxycarbonyl)ethyl)indolin-4-yl ethylmethylcarbamate hydrochloride]
IC50 [1]: 1.46 ± 0.05 µM | IC50 (Radical scavenging, Sin1): 4.55 ± 0.48 µM | IC50 (BuChE; [6]): 0.3 µM | Reduction in TNF-α levels, BV2 Microglia % peak reduction [2]: 38.5 ± 3.2% | Reduction in TNF-α levels, BV2 Microglia range [2]: 10^−1-100 nM | Emax (TNF-α, RAW 264.7 cells; [7]): 30 ± 3% | Reduction in TNF-α levels, RAW Macrophages range (TNF-α, RAW 264.7 cells; [8]): 10^−1-100 nM | ChE inhibition in plasma, muscle, and spleen [3]: inhibited ChE

O=C(O)CCC1CNc2cc(O)ccc21 (stereo not shown) [AN-848, 3-(6-Hydroxyindolin-3-yl) propanoic acid hydrochloride]
IC50 [1]: 2.34 ± 0.02 µM | IC50 (Radical scavenging, Sin1): 3.07 ± 0.66 µM

CCN(C)C(=O)Oc1ccc2c(CCC(=O)OCOC(=O)C(C)(C)C)c[nH]c2c1 [AN-860, (3-(6-(Ethyl(methyl)carbamoyloxy)-1H-indol-3-yl)propanotloxy)methyl pivalate]
ChE inhibition in plasma, muscle, and spleen [3]: inhibited ChE

CCOC(=O)CCC1CNc2cccc(OC(=O)N(C)CC)c21.O=C(O)CC(O)(CC(=O)O)C(=O)O (stereo not shown) [AN-871, Ethyl 3-(4-(ethyl(methyl)carbamoyloxy)indolinium citrate]
IC50 (AChE; [5]): 40.2 µM | IC50 (BuChE; [6]): 0.56 µM

CCN(C)C(=O)Oc1ccc2c(c1)NCC2CCC(=O)OC.O=C(O)CC(O)(CC(=O)O)C(=O)O (stereo not shown) [AN-878, 6-(Ethyl(methyl)carbamoyloxy)-3-(3-methoxy-3-oxopropyl)indolinium citrate]
ChE inhibition in plasma, muscle, and spleen [3]: inhibited ChE

CCN(C)C(=O)Oc1cccc2[nH]cc(CCCN)c12 [AN-910, 3-(4-((Ethyl(methyl)carbamoyl)oxy)-1H-indol-3-yl)propan-1-aminium chloride]
IC50 (BuChE; [6]): 0.23 µM | Emax (NO, RAW 264.7 cells; [9]): 29.3 ± 1.2%

CCN(C)C(=O)Oc1ccc2c(CCCN)c[nH]c2c1.Cl [AN-911, 3-(6-((Ethyl(methyl)carbamoyl)oxy)-1H-indol-3-yl)propan-1-aminium chloride]
IC50 (AChE; read-out: IC50 AChE 120 min): 24 µM | IC50 (BuChE; [6]): 0.1 µM | Emax (NO, RAW 264.7 cells; [9]): 66.6 ± 1.9% | Reduction in NO levels by at >20%, RAW Macrophages range (NO, RAW 264.7 cells; [8]): 10^−2-100 nM

CCN(C)C(=O)Oc1cccc2c1CCN2CCC(=O)OC.Cl [AN-1243, Methyl 3-(4-((Ethyl(methyl)carbamoyl)oxy)indolin-1-yl)propanoate Hydrochloride]
IC50 [1]: 0.3 ± 0.01 µM | IC50 (Radical scavenging, Sin1): 8.49 ± 0.003 µM | IC50 (BuChE; [6]): 0.7 µM | Reduction in TNF-α levels, BV2 Microglia % peak reduction [2]: 18.6 ± 1.0% | Reduction in TNF-α levels, BV2 Microglia range [2]: 100 nM | Emax (TNF-α, RAW 264.7 cells; [7]): 20.3 ± 5.4%

CCN(C)C(=O)Oc1cccc2[nH]cc(CCN(C)C)c12 [AN-1252, 3-(2-(Dimethylamino)ethyl)-1H-indol-4-yl ethyl(methyl)carbamate hydrochloride]
IC50 (BuChE; read-out: IC50 BuChE 120 min): 0.11 µM | Emax (NO, RAW 264.7 cells; Mus musculus, RAW264.7, 24 h; read-out: Reduction in NO levels, RAW Macrophages % peak reduction): 36.4 ± 1.8%

CCCCN(C)C(=O)Oc1ccc2c(CCC(=O)OC)c[nH]c2c1 [compound 676, 3-(2-(Methoxycarbonyl)ethyl)-1H-indol-6-yl butylmethylcarbamate]
IC50 (AChE; [4]): 33 µM

COC(=O)CCc1c[nH]c2cc(OC(=O)N(C)c3ccc(OC)cc3)ccc12 [compound 683, Methyl 3-(6-((4-methoxyphenyl)(methyl)carbamoyloxy)-1H-indol-3-yl)propanoate]
IC50 (AChE; [4]): > 800 µM

CCN(C)C(=O)Oc1ccc2c(c1)N(CCC(=O)OC)CC2 [compound 1247, Methyl 3-(6-((Ethyl(methyl)carbamoyl)oxy)indolin-1-yl)propanoate hydrochloride]
IC50 [1]: 0.22 ± 0.04 µM | IC50 (Radical scavenging, Sin1): 2.18 ± 0.17 µM | IC50 (BuChE; [6]): 6.8 µM

Ethyl 3-(5- ((ethyl(methyl)carbamoyl) oxy)-1H- benzo[d]imidazol-1- yl)propanoate hydrochloride Ethyl 3-(6- ((ethyl(methyl)carbamoyl) oxy)-1H- benzo[d]imidazol-1- yl)propanoate hydrochloride [AN-1257]
IC50 (BuChE; Table 3; 120 min incubation; read-out: IC50 BuChE 120 min): 0.11 µM | Reduction in NO levels, RAW Macrophages % peak reduction (NO, RAW 264.7 cells): 34.5 ± 1.2% | Reduction in NO levels by at >20%, RAW Macrophages range (NO, RAW 264.7 cells; [8]): 10^−2-1000 nM
